{"source": "patent US20240218019A1", "about": "“METHODS AND COMPOSITIONS COMPRISING MHC CLASS I PEPTIDES” (BOARD OF REGENTS, THE UNIVERSITY OF TEXAS SYSTEM, priority 2021, published 2024)", "system": "healthy donor PBMCs", "experiment": "IFNγ ELISpot assay with peptide-stimulated healthy donor PBMCs", "type": "cell-based, human", "conditions": "for ELISpot IFNγ reactivity (immunogenicity) of individual peptides: healthy donor PBMCs, compared to unexposed control cells", "experimental": "FIG. 10A-D. In vitro validation of predicted neoAgs immunogenicity using ELISpot IFNy assay. A) Schematic of peptide pool, stimulation, and cell culture workflow for ELISpot assays. PBMCs were exposed with the individual peptides from the immunogenic pools in the presence of IL-7 for 3 d, followed by expansion of neoAg-specific T cells in the presence of IL-2. On day 13, expanded cells (10^5 cells per well) were plated onto 96-well ELISpot plate coated with an IFNγ antibody and re-stimulated with the respective peptide for 24 h. IFNy secreting cells were analyzed as spot-forming units (SFUs), and the inventors chose ≥15 SFU produced by peptide stimulated cells over DMSO control cells as an indicator of the peptide immunogenicity. B) Quantification of IFNγ-secreting cells (SFU) obtained from ELISpot assay of 12 neoAg-stimulated PBMCs. ConcA and DMSO served as positive and negative controls. […] C) Selection of 110 predicted MHC-I neoAgs from 3 different categories and percentage of immunogenicity in vitro validation. […] “Most Immunogenic” refers to neoAgs selected from the top 100 prediction list of Most Immunogenic MHC-I neoAgs. “Most recurrent” refers to neoAgs selected from the top 100 prediction list of Most Recurrent MHC-I neoAgs. “Others” refers neoAgs that were predicted to have low immunogenicity and no recurrency. A total of 44 MHC-II neoAgs from 2 different categories were tested. […] “Most Immunogenic” refers to neoAgs selected from the top 100 prediction list of Most Immunogenic MHC-II neoAgs. “Most recurrent” refers to neoAgs selected from the top 100 prediction list of Most Recurrent MHC-II neoAgs. D) pMHC-pentamer staining. Expanded Pan-T cells from the healthy human donor were isolated and stained with WDTC1 neoAg peptide/A*02:01 Pentameric complexes and PerCP-conjugated CD8 antibody followed by flow cytometry analysis. Pan T-cells from healthy human donor PBMC (HLA-A*02:01) were isolated using negative magnetic selection. Isolated Pan T cells were stimulated and expanded with Opto-antigen presenting beads conjugated with WDTC1 neoAg-peptide. Viable Pan-T cells were gated based on FSC and SSC scatter and SYTOX Blue dead cells staining after doublet-exclusion. Flow cytometric plots representing CD8 positive (x-axis) and PE-biotin-pMHC-pentamer positive (y-axis) cells; unstained, unstimulated, and WDTC1 Opto-antigen presenting beads stimulated cells (left to right). The percentage of live CD8+ cells and CD8/WDTC1 neoAg-loaded MHC pentamer positive cells are shown.\nFIG. 19A-B. In vitro validation of the pooled predicted neoAgs immunogenicity using ELISpot IFNγ assay. A) Schematic of peptide pool, stimulation, and cell culture workflow for ELISpot assays. All 154 peptides were grouped into 15 peptide pools to stimulate PBMCs from 3 healthy human donors as shown in the illustrations. IFNy secreting cells were analyzed as spot-forming units (SFUs), indicative of immunogenicity. B) Quantification of IFNγ-secreting cells (SFU) obtained from ELISpot assay. Pools 2, 3, 5, 6, 9, and 12 produced at least 15 or higher SFU/10^5 cells from two different PBMCs. […] ConcA and DMSO served as positive and negative controls.\nHealthy donor PBMCs were stimulated with 15 peptide pools (Supplementary Table 13) to expand the neoAg-specific CD8^+ T-cells followed by quantitative ELISpot assays (FIG. 19A) to measure immunogenicity. […] To ascertain the immunogenicity of individual peptides within each immunogenic pool. a deconvolution protocol (see Methods) was implemented (FIG. 10A). […] Three percent of MHC-I neoAgs not predicted to be highly immunogenic or recurrent (Others). 5% of the top 100 most immunogenic MHC-II predicted neoags, and 6% of the top 100 most recurrent MHC-II predicted neoags elicited an immunogenic response as assessed by ELISpot assays. Additionally. 18% of all of these elispot-reactive neoags were also predicted from the validation set (FIG. 9C). […]", "key": {"[1]": {"conditions": "IFNγ ELISpot, peptide-stimulated healthy donor PBMCs"}, "[2]": {"conditions": "IFNγ ELISpot, peptides marked Tested"}, "[3]": {"conditions": "IFNγ secretion in healthy donor PBMCs vs unexposed control cells"}, "[4]": {"conditions": "IFNγ ELISpot, peptide-stimulated healthy donor PBMCs, peptides grouped in 15 pools"}, "[5]": {"conditions": "IFNγ ELISpot, only peptides marked Tested"}}, "note": "“Also recorded” adds a separate entry of the source.", "data": [{"sequence": "ASLAHSDNF [compound 106]", "values": [{"measurement": "ELISPOT result (positive Yes/No) for peptides marked Tested", "setting": "[1]", "result": "No"}, {"measurement": "ELISPOT positive", "setting": "only neoAgs marked Tested with ELISPOT", "result": "No"}]}, {"sequence": "ATLVTPPTRY [compound 166]", "values": [{"measurement": "ELISPOT result (positive Yes/No) for peptides marked Tested", "setting": "[1]", "result": "No"}]}, {"sequence": "CRREYRVTM [compound 135]", "values": [{"measurement": "ELISPOT result (positive Yes/No) for peptides marked Tested", "setting": "[1]", "result": "No"}]}, {"sequence": "ELLNPVTMNK [compound 207]", "values": [{"measurement": "Elispot reactive", "setting": "IFNγ ELISpot, peptide tested", "result": "No"}]}, {"sequence": "FLADSGIDPV [WDTC1, WDTC1 neoAg peptide, HLA-A*02:01 restricted]", "values": [{"measurement": "ELISpot IFNγ reactivity (immunogenicity) of individual peptides", "result": "most reactive (immunogenic); also recorded: immunogenic"}]}, {"sequence": "FLAPCNFYL [compound 16]", "values": [{"measurement": "Elispot reactive", "setting": "IFNγ ELISpot, peptide tested", "result": "No"}]}, {"sequence": "FLATSGIDPV [compound 44]", "values": [{"measurement": "ELISPOT result for peptides marked Tested with ELISPOT (Yes/No)", "setting": "[1]", "result": "Yes"}, {"measurement": "Elispot reactive", "setting": "[2]", "result": "Yes"}, {"measurement": "Elispot reactive", "setting": "[3]", "result": "Yes"}]}, {"sequence": "FLIDDNFKV", "values": [{"measurement": "Elispot reactive", "setting": "[4]", "result": "yes"}]}, {"sequence": "FLIDDNFKV [SEQ ID NO 10]", "values": [{"measurement": "ELISpot IFNγ reactivity (immunogenicity) of individual peptides", "setting": "listed as TTLL10", "result": "most reactive (immunogenic); also recorded: immunogenic"}]}, {"sequence": "FLIDDNFKV [compound 10]", "values": [{"measurement": "Elispot reactive", "setting": "IFNγ ELISpot, peptide tested", "result": "Yes"}, {"measurement": "Elispot reactive", "setting": "[3]", "result": "Yes"}]}, {"sequence": "FLMDGFDEL [compound 11]", "values": [{"measurement": "Elispot reactive", "setting": "IFNγ ELISpot, peptide tested", "result": "No"}]}, {"sequence": "FLQEVFQA [compound 5]", "values": [{"measurement": "ELISPOT result (positive Yes/No) for peptides marked Tested", "setting": "[1]", "result": "No"}]}, {"sequence": "FLWNSLLAV [compound 12]", "values": [{"measurement": "Elispot reactive", "setting": "IFNγ ELISpot, peptide tested", "result": "No"}]}, {"sequence": "FMNSTVFHV [compound 3]", "values": [{"measurement": "ELISPOT result for peptides marked Tested with ELISPOT (Yes/No)", "setting": "[1]", "result": "No"}]}, {"sequence": "FQVHFLKSGGLPLVL", "values": [{"measurement": "Elispot reactive", "setting": "[4]", "result": "yes"}]}, {"sequence": "FQVHFLKSGGLPLVL [compound 221]", "values": [{"measurement": "Elispot reactive", "setting": "[5]", "result": "Yes"}, {"measurement": "Elispot reactive", "setting": "[3]", "result": "Yes"}]}, {"sequence": "GLLHAVQEKL [compound 165]", "values": [{"measurement": "ELISPOT result (positive Yes/No) for peptides marked Tested", "setting": "[1]", "result": "No"}]}, {"sequence": "GMVPLIIPV [compound 116]", "values": [{"measurement": "Elispot reactive", "setting": "[2]", "result": "No"}]}, {"sequence": "HNVQGFHPY [compound 178]", "values": [{"measurement": "ELISPOT result (positive Yes/No) for peptides marked Tested", "setting": "[1]", "result": "No"}]}, {"sequence": "HPARHLCRL [compound 208]", "values": [{"measurement": "Elispot reactive", "setting": "IFNγ ELISpot, peptide tested", "result": "No"}]}, {"sequence": "HPPPPCLLLL [compound 217]", "values": [{"measurement": "Elispot reactive", "setting": "IFNγ ELISpot, peptide tested", "result": "No"}]}, {"sequence": "HSWRFCTHIR [compound 154]", "values": [{"measurement": "ELISPOT result (positive Yes/No) for peptides marked Tested", "setting": "[1]", "result": "No"}]}, {"sequence": "HTCKVCVSF [compound 176]", "values": [{"measurement": "ELISPOT result (positive Yes/No) for peptides marked Tested", "setting": "[1]", "result": "No"}]}, {"sequence": "IAFSQLIGM [compound 167]", "values": [{"measurement": "ELISPOT result (positive Yes/No) for peptides marked Tested", "setting": "[1]", "result": "No"}]}, {"sequence": "IAQPSTSSL [compound 28]", "values": [{"measurement": "Elispot reactive", "setting": "[5]", "result": "No"}, {"measurement": "Elispot reactive", "setting": "[2]", "result": "No"}]}, {"sequence": "ILFFFSSK [compound 175]", "values": [{"measurement": "ELISPOT result (positive Yes/No) for peptides marked Tested", "setting": "[1]", "result": "No"}]}, {"sequence": "IQKSWTATTY", "values": [{"measurement": "Elispot reactive", "setting": "[4]", "result": "yes"}]}, {"sequence": "IQKSWTATTY [compound 39]", "values": [{"measurement": "Elispot reactive", "setting": "[5]", "result": "Yes"}, {"measurement": "Elispot reactive", "setting": "[3]", "result": "Yes"}]}, {"sequence": "KADQSESSL [compound 123]", "values": [{"measurement": "Elispot reactive", "setting": "[2]", "result": "No"}]}, {"sequence": "KANRYFSPNF [compound 62]", "values": [{"measurement": "ELISPOT result (positive Yes/No) for peptides marked Tested", "setting": "[1]", "result": "Yes"}, {"measurement": "ELISPOT result for peptides marked Tested with ELISPOT (Yes/No)", "setting": "[1]", "result": "No"}, {"measurement": "Elispot reactive", "setting": "[3]", "result": "Yes"}]}, {"sequence": "KLFEKKYSV [compound 6]", "values": [{"measurement": "Elispot reactive", "setting": "IFNγ ELISpot, peptide tested", "result": "No"}]}, {"sequence": "KLSSVVPSV [compound 22]", "values": [{"measurement": "Elispot reactive", "setting": "[5]", "result": "No"}]}, {"sequence": "KLYEAVPQL [compound 159]", "values": [{"measurement": "ELISPOT result (positive Yes/No) for peptides marked Tested", "setting": "[1]", "result": "No"}]}, {"sequence": "KMMKILMIK [compound 19]", "values": [{"measurement": "Elispot reactive", "setting": "[5]", "result": "No"}]}, {"sequence": "KPIAGRHTL [compound 8]", "values": [{"measurement": "Elispot reactive", "setting": "IFNγ ELISpot, peptide tested", "result": "No"}]}, {"sequence": "KPLWRKSPL [compound 137]", "values": [{"measurement": "ELISPOT result (positive Yes/No) for peptides marked Tested", "setting": "[1]", "result": "No"}]}, {"sequence": "KRAFIHTPR [compound 131]", "values": [{"measurement": "ELISPOT result (positive Yes/No) for peptides marked Tested", "setting": "[1]", "result": "No"}]}, {"sequence": "KTYMEMHY", "values": [{"measurement": "Elispot reactive", "setting": "[4]", "result": "yes"}]}, {"sequence": "KTYMEMHY [compound 57]", "values": [{"measurement": "ELISPOT result (positive Yes/No) for peptides marked Tested", "setting": "[1]", "result": "No"}, {"measurement": "ELISPOT result for peptides marked Tested with ELISPOT (Yes/No)", "setting": "[1]", "result": "Yes"}, {"measurement": "Elispot reactive", "setting": "[3]", "result": "Yes"}]}, {"sequence": "KVDTHHLQV [compound 133]", "values": [{"measurement": "ELISPOT result (positive Yes/No) for peptides marked Tested", "setting": "[1]", "result": "No"}]}, {"sequence": "KVPFFSALK [compound 169]", "values": [{"measurement": "ELISPOT result (positive Yes/No) for peptides marked Tested", "setting": "[1]", "result": "No"}]}]}
